The record followed here is article PMC6934184, “Selective DNA-PKcs inhibition extends the therapeutic index of localized radiotherapy and chemotherapy” (The Journal of Clinical Investigation, 2019).

The target of the assay is T1, EGFR (ErbB1) (Homo sapiens, UniProt P00533).
T1 construct: purchased Thermo Fisher Scientific (Life Technologies) SelectScreen
Nature of the assay: SelectScreen Z'LYTE. Format: biochemical. Summed up: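 SelectScreen broad panel; activity (Z'LYTE, Adapta) plus binding formats. ATP: Km app for CSF1R Z'LYTE; 10 for CAMK1 Adapta. Readout = % per kinase.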

By inhibition is commonly meant the relative decrease from the control value, in per cent.

T1 sequence (P00533 25-1210): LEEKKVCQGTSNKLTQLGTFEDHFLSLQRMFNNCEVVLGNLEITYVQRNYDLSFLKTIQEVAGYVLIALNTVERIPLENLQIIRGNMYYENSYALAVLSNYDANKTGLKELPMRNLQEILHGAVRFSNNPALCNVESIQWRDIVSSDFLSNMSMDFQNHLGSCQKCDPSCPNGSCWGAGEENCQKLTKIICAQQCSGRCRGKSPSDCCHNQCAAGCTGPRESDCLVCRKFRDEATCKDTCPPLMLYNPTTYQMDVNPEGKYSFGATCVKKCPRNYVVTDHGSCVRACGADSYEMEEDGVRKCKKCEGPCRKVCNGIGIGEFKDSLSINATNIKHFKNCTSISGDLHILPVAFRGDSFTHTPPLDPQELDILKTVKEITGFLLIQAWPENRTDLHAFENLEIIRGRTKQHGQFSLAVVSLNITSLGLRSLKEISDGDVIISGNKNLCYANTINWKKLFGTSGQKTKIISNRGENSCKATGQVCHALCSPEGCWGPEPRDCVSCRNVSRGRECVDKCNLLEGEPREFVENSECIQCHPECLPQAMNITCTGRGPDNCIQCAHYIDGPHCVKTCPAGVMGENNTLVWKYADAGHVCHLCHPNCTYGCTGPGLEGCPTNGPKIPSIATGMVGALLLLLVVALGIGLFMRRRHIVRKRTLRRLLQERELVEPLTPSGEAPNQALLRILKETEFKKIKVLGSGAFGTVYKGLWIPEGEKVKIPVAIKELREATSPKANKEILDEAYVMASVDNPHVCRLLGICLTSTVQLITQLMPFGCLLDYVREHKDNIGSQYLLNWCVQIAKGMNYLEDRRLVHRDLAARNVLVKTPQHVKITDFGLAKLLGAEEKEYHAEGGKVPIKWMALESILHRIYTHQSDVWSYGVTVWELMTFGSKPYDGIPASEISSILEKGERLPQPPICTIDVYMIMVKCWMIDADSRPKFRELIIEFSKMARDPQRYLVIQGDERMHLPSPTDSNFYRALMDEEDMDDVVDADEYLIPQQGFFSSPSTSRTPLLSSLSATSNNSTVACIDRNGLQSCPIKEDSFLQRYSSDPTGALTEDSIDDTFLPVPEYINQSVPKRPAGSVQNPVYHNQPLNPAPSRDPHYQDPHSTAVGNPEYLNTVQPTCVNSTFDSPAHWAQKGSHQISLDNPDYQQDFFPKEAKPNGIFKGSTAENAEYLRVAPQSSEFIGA

`CN(C(=O)CN1CCOCC1)c1ccc2sc3c(-c4cccc5c(=O)cc(N6CC7CCC(C6)O7)oc45)cccc3c2c1` [NU5455] had an inhibition at 1 µM of 6%.
